In brackets after ≈: the same amount, converted by molar mass. Where two headings read alike, the source gives them in different places.
Assays:
C. tropicalis = assay: Additional MIC experiments (CSA-13 and squalamine); format: cell-based, Candida tropicalis
Protocol: (§1) An antifungal agent is serially diluted two-fold in a desired medium to produce ten concentrations of the antifungal under investigation. The range used is chosen to include achievable serum levels of the drug. A standardized inoculum of either yeast cells or conidia is diluted in an equal volume of the desired medium. The yeast or conidia inoculum is incubated in the serially diluted drug wells at 35° C. Two wells are used as controls. The negative control well has only media and serves as a sterility control. The positive control well has the standardized inoculum with no drug, and is used to compare with the amount of growth in the drug wells.
(§2) Testing is reported as an MIC, or minimum inhibitory concentration in μg/ml. This number represents the concentration at which the organism's growth in inhibited 50% from the control well for yeasts, and 80% for dermatophytes and certain filamentous fungi/antifungal combinations. Amphotericin B readings are taken at 100% inhibition.
(§3) Fungal cultures were prepared as follows: • 1. Grow Candida sp. on a potato dextrose agar plate for 24 hrs. at 35° C. Grow Cryptococcus sp. for 48 hrs. • 2. Pick 5 colonies >1 mm in diameter to 5 ml of 0.85% sterile saline in a sterile 15 ml conical tube and vortex. • 3. Count the cells using a hemacytometer • 4. […]

Candida albicans = assay: MIC determination, broth microdilution (CLSI M27-A2); format: cell-based; details: 35° C., 24 hrs, 50% growth inhibition
Protocol: (§4) CSA 8 and CSA 13 were dissolved in dimethyl sulfoxide (DMSO) to create stock solutions. These solutions were applied to fungal isolates to determine the minimum inhibitory concentration (MIC) for each CSA.
as §1, §2
(§5) Fungal cultures were prepared as follows: • 1. Grow Candida sp. on a potato dextrose agar plate for 24 hrs. at 35° C. Grow Cryptococcus sp. for 48 hrs. • 2. […]

C. glabrata = assay: Additional MIC experiments (CSA-13 and squalamine); format: cell-based, Candida glabrata
Protocol: as §1, §2, §3

[1] = system: T. rubrum (terbinafine resistant); assay: MIC determination, broth microdilution (CLSI M38-A); format: cell-based, Trichophyton rubrum; details: 35° C., 80% growth inhibition for dermatophytes
Protocol: as §4, §1, §2, §5

C. krusei = assay: MIC determination, broth microdilution (CLSI M27-A2); format: cell-based, Candida krusei; details: 35° C., 24 hrs, 50% growth inhibition
Protocol: as §4, §1, §2, §5

[2] = system: C. krusei (fluconazole resistant); assay: as above; format: cell-based, Candida krusei; details: 35° C., 24 hrs, 50% growth inhibition
Protocol: as §4, §1, §2, §5

C. guilliermondii = assay: Additional MIC experiments (CSA-13 and squalamine); format: cell-based, Candida guilliermondii
Protocol: as §1, §2, §3

[3] = system: C. albicans (fluconazole resistant); assay: MIC determination, broth microdilution (CLSI M27-A2); format: cell-based, Candida albicans; details: 35° C., 24 hrs, 50% growth inhibition
Protocol: as §4, §1, §2, §5

C. parapsilosis = assay: as above; format: cell-based, Candida parapsilosis; details: 35° C., 24 hrs, 50% growth inhibition
Protocol: as §4, §1, §2, §5

Cryptococcus neofermans = assay: Additional MIC experiments (CSA-13 and squalamine); format: cell-based, Cryptococcus neoformans
Protocol: as §1, §2, §3

T. mentagrophytes = assay: MIC determination, broth microdilution (CLSI M38-A); format: cell-based, Trichophyton mentagrophytes; details: 35° C., 80% growth inhibition for dermatophytes
Protocol: as §4, §1, §2, §5

T. tonsurans = assay: as above; format: cell-based, Trichophyton tonsurans; details: 35° C., 80% growth inhibition for dermatophytes
Protocol: as §4, §1, §2, §5

C. lusitaniae = assay: Additional MIC experiments (CSA-13 and squalamine); format: cell-based, Candida lusitaniae
Protocol: as §1, §2, §3

Aspergillus fumigatus = assay: MIC determination, broth microdilution (CLSI M38-A); format: cell-based; details: 35° C.
Protocol: as §4, §1, §2
(§6) Fungal cultures were prepared as follows: • 1. Grow Candida sp. on a potato dextrose agar plate for 24 hrs. at 35° C. Grow Cryptococcus sp. for 48 hrs. • 2. Pick 5 colonies >1 mm in diameter to 5 ml of 0.85% sterile saline in a sterile 15 ml conical tube and vortex. • 3. Count the cells using a hemacytometer • 4. Prepare a working suspension of yeast cells in RPMI-1640 to a final concentration of 2-5×10^3 CFU/ml (CFU=colony forming units or yeast cells) • 5. Prepare at least 2.5 ml of the working yeast suspension per drug per plate.
(§7) Plates were prepared as follows: • 1. Aseptically dispense RPMI-1640 into a 25 ml reservoir. • 2. Using a multichannel pipette with 8 tips, dispense 100 μl of RPMI-1640 into the wells of a 96 well round bottom plate in columns 11 and 12. These will serve as growth controls and sterility controls, respectively. • 3. Remove excess liquid from the reservoir. • 4. Add the lowest concentration of antifungal from the set of final concentrations to the reservoir, and using the same set of tips, dispense 100 μl into the wells of column 10. • 5. Repeat steps 4-5 for each final concentration, working from lowest to highest concentration into columns 9 through 1, until all columns are filled. • 6. Using a new set of pipette tips and a new reservoir, add 100 μl of inoculum to each well except […]. • 7. Run each organism in duplicate (i.e. add isolate one to rows 1 and 2, isolate two to rows 3 and four, etc.) • 8. Incubate the plates at 35° C. for 24 hrs. for Candida sp. and 72 hrs. for Cryptococcus sp. • Similar procedures are followed for Aspergillus sp., Trichophyton sp., and Microsporum sp.
(§8) Stock solutions of water-soluble and water insoluble antifungal agents were prepared according to standard laboratory procedures.
(§9) Antifungal susceptibility testing gives a numerical result expressed in μg/ml indicating an in vitro MIC, or minimum inhibitory concentration, of the drug being investigated. The Clinical and Laboratory Standards Institute (CLSI) has provided guidelines for standardized microdilution broth testing (CLSI M27-A2 for yeasts and CLSI M38-A for filamentous molds), which is followed in the above procedure. The CLSI has also published guidelines for interpretation of MIC results based on clinical correlation studies for yeasts.

Microsporum canis = assay: as above; format: cell-based; details: 35° C., 80% growth inhibition for dermatophytes
Protocol: as §4, §1, §2, §6, §7, §8, §9

Penicillium sp. = assay: as above; format: cell-based; details: 35° C.
Protocol: as §4, §1, §2, §6, §7, §8, §9

Trichophyton rubrum = assay: as above; format: cell-based; details: 35° C., 80% growth inhibition for dermatophytes
Protocol: as §4, §1, §2, §6, §7, §8, §9

Aspergillus niger = assay: as above; format: cell-based; details: 35° C.
Protocol: as §4, §1, §2, §6, §7, §8, §9

Cladosporium sp. = assay: as above; format: cell-based; details: 35° C.
Protocol: as §4, §1, §2, §6, §7, §8, §9

[4] = system: C. galabrata (fluconazole resistant); assay: MIC determination, broth microdilution (CLSI M27-A2); format: cell-based, Candida glabrata; details: 35° C., 24 hrs, 50% growth inhibition
Protocol: as §4, §1, §2, §5

[5] = system: 100 Candida auris isolates; assay: Antifungal effectiveness against Candida auris, MIC by CLSI M27-A3; format: cell-based
Protocol: The antifungal effectiveness of CSA-131 was tested against 100 Candida auris isolates. The C. auris isolates were form all over the world and covered know C. auris clades. The selection included isolated known to have elevated MIC values against fluconazole, the echinocandins, and/or amphotericin B.
Testing was performed according to the standards of the Clinical and Laboratory Standards Institute reference methodology M27-A3 (as of 2017). CSA-131 was dissolved in DMSO and diluted as described in M27-A3 to give a final DMSO concentration of <1%. Dilution plates were stored at −70° C. until used and were used within one week of being produced. All results were read visually after 24 hours of incubation at the lowest drug concentration at which there was a 50% decrease in growth by visual inspection. Quality control isolates C. parapsilosis ATCC22019 and C. krusei ATCC6258 were included on each day of testing although there are no standard QC values for these isolates against this compound. The MIC values for ATCC22019 and ATCC6258 remained within a tight range of 1-2 dilutions over the course of the study.

[6] = C. auris isolates with elevated echinocandin MICs, 7 isolates

CCCCCCCCNCCC[C@@H](C)[C@H]1CC[C@H]2[C@@H]3[C@H](OCCCN)C[C@@H]4C[C@H](OCCCN)CC[C@]4(C)[C@H]3C[C@H](OCCCN)[C@]12C [CSA 13]
MIC (C. tropicalis; C. tropicalis): 0.5 µg/mL | MIC (Candida albicans): 2 µg/mL | MIC (C. glabrata; C. glabrata): 0.5 µg/mL | MIC [1]: 4 µg/mL | MIC (C. krusei): 2 µg/mL | MIC [2]: 1 µg/mL | MIC (C. guilliermondii; C. guilliermondii): 0.5 µg/mL | MIC [3]: 2 µg/mL | MIC (C. parapsilosis): 2 µg/mL | MIC (Cryptococcus neofermans; Cryptococcus neofermans): 0.5 µg/mL | MIC (T. mentagrophytes): 2 µg/mL | MIC (T. tonsurans): 2 µg/mL | MIC (C. lusitaniae; C. lusitaniae): 0.5 µg/mL | MIC (Aspergillus fumigatus): 8 µg/mL | MIC (Microsporum canis): 2 µg/mL | MIC (Penicillium sp.): 0.5 µg/mL | MIC (Trichophyton rubrum): 4 µg/mL | MIC (Aspergillus niger): 2 µg/mL | MIC (Cladosporium sp.): 0.5 µg/mL | MIC [4]: 2 µg/mL

CCCCCCCCCCCCNCCC[C@@H](C)[C@H]1CC[C@H]2[C@@H]3[C@H](OCCCN)C[C@@H]4C[C@H](OCCCN)CC[C@]4(C)[C@H]3C[C@H](OCCCN)[C@]12C [CSA-131]
MIC Range ([5]; 100 C. auris isolates, 24 hours, 50% decrease in growth): 0.5 to 1 µg/mL | MIC Range ([5]; C. auris Clade 1, 47 isolates): 0.5 to 1 µg/mL | MIC90 ([5]; C. auris Clade 2, 11 isolates): 1 µg/mL (≈ 1.36 µM) | MIC Range ([5]; C. auris Clade 2, 11 isolates): 0.5 to 1 µg/mL | MIC90 ([5]; C. auris Clade 3, 39 isolates): 1 µg/mL (≈ 1.36 µM) | MIC Range ([5]; C. auris Clade 3, 39 isolates): 0.5 to 1 µg/mL | MIC90 ([5]; C. auris Clade 4, 3 isolates): 1 µg/mL (≈ 1.36 µM) | MIC Range ([5]; C. auris Clade 4, 3 isolates): 0.5 to 1 µg/mL | MIC90 [5, 6]: 1 µg/mL (≈ 1.36 µM) | MIC Range [5, 6]: 0.5 to 1 µg/mL | MIC50 ([5]; Candidozyma auris, 24 h, 100 C. auris isolates, 24 hours, 50% decrease in growth, read-out: MIC50): 1 µg/mL (≈ 1.36 µM) | MIC ([5]; Candidozyma auris, 24 h, 100 C. auris isolates, 24 hours, 50% decrease in growth, read-out: MIC Mode): 1 µg/mL (≈ 1.36 µM) | MIC50 ([5]; Candidozyma auris, C. auris Clade 1, 47 isolates, read-out: MIC50): 1 µg/mL (≈ 1.36 µM) | MIC90 ([5]; Candidozyma auris, C. auris Clade 1, 47 isolates, read-out: MIC90): 1 µg/mL (≈ 1.36 µM) | MIC ([5]; Candidozyma auris, C. auris Clade 1, 47 isolates, read-out: MIC Mode): 1 µg/mL (≈ 1.36 µM) | MIC50 ([5]; Candidozyma auris, C. auris Clade 2, 11 isolates, read-out: MIC50): 1 µg/mL (≈ 1.36 µM) | MIC ([5]; Candidozyma auris, C. auris Clade 2, 11 isolates, read-out: MIC Mode): 1 µg/mL (≈ 1.36 µM) | MIC50 ([5]; Candidozyma auris, C. auris Clade 3, 39 isolates, read-out: MIC50): 1 µg/mL (≈ 1.36 µM) | MIC ([5]; Candidozyma auris, C. auris Clade 3, 39 isolates, read-out: MIC Mode): 1 µg/mL (≈ 1.36 µM) | MIC50 ([5]; Candidozyma auris, C. auris Clade 4, 3 isolates, read-out: MIC50): 0.5 µg/mL (≈ 0.682 µM) | MIC ([5]; Candidozyma auris, C. auris Clade 4, 3 isolates, read-out: MIC Mode): 0.5 µg/mL (≈ 0.682 µM) | MIC50 ([5]; Candidozyma auris, C. auris isolates with elevated echinocandin MICs, 7 isolates, read-out: MIC50): 1 µg/mL (≈ 1.36 µM) | MIC ([5]; Candidozyma auris, C. auris isolates with elevated echinocandin MICs, 7 isolates, read-out: MIC Mode): 1 µg/mL (≈ 1.36 µM) | MIC50 ([5]; Candidozyma auris, fluconazole Resistant C. auris isolates, 69 isolates): 1 µg/mL (≈ 1.36 µM) | MIC50 ([5]; Candidozyma auris, fluconazole Susceptible C. auris isolates, 30 isolates): 0.5 µg/mL (≈ 0.682 µM) | MIC ([5]; Candidozyma auris, read-out: MIC Mode, fluconazole Resistant C. auris isolates, 69 isolates): 1 µg/mL (≈ 1.36 µM) | MIC90 ([5]; Candidozyma auris, 100 C. auris isolates, 24 hours, 50% decrease in growth, read-out: MIC90): 1 µg/mL (≈ 1.36 µM) | activity against C. auris (in words) ([5]; collection of 100 C. auris isolates, 4 clades): showed activity against all C. auris among this collection | MIC90 ([5]; {}): 1 µg/mL (≈ 1.36 µM) | MIC Range ([5]; {}): 0.5 to 1 µg/mL

CC(C)[C@@H](CC[C@@H](C)[C@H]1CC[C@H]2[C@@H]3[C@H](O)C[C@H]4C[C@@H](NCCCNCCCCN)CC[C@]4(C)[C@H]3CC[C@]12C)OS(=O)(=O)O [Squalamine, squalamine, reference compound]
MIC (C. tropicalis; Candida tropicalis): 4 µg/mL | MIC (C. glabrata; Nakaseomyces glabratus): 2 µg/mL | MIC (C. guilliermondii; Meyerozyma guilliermondii): 4 µg/mL | MIC (Cryptococcus neofermans; Cryptococcus): 4 µg/mL | MIC (C. lusitaniae; Clavispora lusitaniae): 4 µg/mL
